{"source": "patent US20090185973A1", "about": "“METHODS, COMPOSITIONS, UNIT DOSAGE FORMS, AND KITS FOR PHARMACOLOGIC STRESS TESTING WITH REDUCED SIDE EFFECTS” (ADENOBIO N.V., priority 2008, published 2009)", "key": {"[1]": {"test_system": "coronary patients", "assay": "SPECT imaging study, summed difference scores (Example 2, Phase II)", "assay_type": "in vivo, human", "design": "key: SDS = SSS − SRS; summed 17-segment scores, each segment 0–4", "conditions": "Series I sequential: SC = dipyridamole 40 μg/kg bolus then adenosine 70 μg/kg/min 4 min; Adenoscan 140 μg/kg/min; 10 patients", "source_text": "The study was a mono-center, single-blind, 2-arm, cross-over trial.\nOnly those patients in whom an ischemic zone was detected were declared eligible for the second test, and were enrolled in the study if other inclusion criteria were satisfied.\nSPECT images were acquired as per the standard approach performed the preceding week.\nSince thallium is currently deemed the best isotope to test myocardial viability at rest, and sestamibi the best isotope to detect myocardial defects under stress conditions, a dual isotope myocardial scintigraphy technique was used for this study. The isotope was injected after a 3 minute infusion with Adenoscan or after a 2.5 minute infusion with the combination. […]\nRandomization of SPECT images, and their analysis by two blinded readers, took place every 10 patients. Anonymous and randomized images were assessed using the standard 17-segment model and the semi-quantitative visual score method on a 5-point scale (from 0 to 4). An additional totally computerized quantitative method was performed using the validated CardioGam software (Segami Corp.). All images were interpreted and quantified automatically by the software calculation package. […]\nSummed stress scores (with Adenosine or with Adenosoft) were defined as SSS, summed rest scores (Thallium) as SRS and summed difference scores as SDS=SSS-SRS. […] If >2, images were read again by a third independent expert. […]"}, "[2]": {"test_system": "patients", "conditions": "most frequently reported adverse effects with adenosine; cited from earlier work"}}, "note": "Where “and” joins values, the source holds several entries; their conditions need not be identical. Identical values can stand only once."}
{"compound": "Nc1ncnc2c1ncn2[C@@H]1O[C@H](CO)[C@@H](O)[C@H]1O", "note": "[adenosine]", "values": [{"measurement": "SDS (summed difference scores), individual patients", "setting": "[1]", "result": "5 (5×) and 4 (2×) and 14 and 13 and 7"}, {"measurement": "Frequency of chest pain or chest discomfort", "setting": "[2]", "result": 40, "unit": "%"}, {"measurement": "Frequency of gastrointestinal discomfort", "setting": "[2]", "result": 13, "unit": "%"}, {"measurement": "Frequency of throat or neck or jaw discomfort", "setting": "[2]", "result": 15, "unit": "%"}]}
